Several values for one entry are separate records, joined by “and”; a condition that tells them apart may be missing. Equal entries are not always repeated. Where two headings read alike, the source gives them in different places.
What was measured:
[1] = Release of BCNU from silicone balloons into water; type: physicochemical
Experimental: Into one balloon prepared as in Example 1 was injected 0.15 ml. of 1% ethanol containing 0.6 mg. of BCNU and into a second balloon 0.15 ml. of 10% ethanol containing 0.5 mg of BCNU.
Each balloon was placed in a scintillation vial containing 5 ml of water and shaken at 37° C. in an automatic shaker. At specified time intervals, the aqueous liquid was removed from the vials containing the balloons. The amount of BCNU dissolved in the water was determined by spectroscopic analysis (absorbance at 232 nm). The water in each scintillation vessel was replaced with 5 ml. of fresh water. […] Results for both ethanolic solutions were as in FIG. 2. (- - -).
BCNU (7.5 mg/0.15 ml sesame oil) was injected into a silicone balloon which was placed in a flask with 5 ml of distilled water and shaken in an automatic shaker at 37° C. The procedure of Example 3(a) was repeated for as many time as positive absorption at 232 nm was recorded. When the experiment had to be interrupted overnight, the dried silicone balloon containing BCNU in sesame oil was stored at -15° C.
BCNU in absolute ethanol solution (13 mg/0.15 ml, 20 mg/0.15 ml, and 60 mg/0.15 ml) was injected in each of three silicone balloons. Release of BCNU from the balloon was followed as in Example 3. Results of this experiment are shown in FIG. 3, in which (--. --. --.) represents data for the solution containing 13 mg of BCNU, (- - -) the solution containing 20 mg and (--) the solution containing 60 mg. A sharp drop in the BCNU release rate after 3-4 hours, indicated by the arrow in the Figure, is correlated with diffusion of all of the ETOH from the balloons.

[2] = test system: Brown-Pearce epithelioma; test: In vivo testing in rabbits with intracameral Brown-Pearce epithelioma, clinical results; design: species or system New Zealand female albino rabbits; reduction in tumor growth: dose or concentration left out as unconfirmed; details: for Day Tumor Destroyed Whole Eye, Treated Eye: * eye not yet destroyed by day of enucleation
Text: Preoperative examination of 28 eyes in 14 New Zealand femal albino rabbits weighing 2.0 to 2.5 kg included biomicroscopy, tonotometry, and indirect ophthalmoscopy. All animals had normal eyes. Both eyes of each animal were inoculated intracamerally with Brown-Pearce epithelioma tissue by the technique at 993 of Liu et al., Invest. Ophthalmol Visual Sci., Vol. 17 (1978).
Three days after tumor tissue implantation, a silicone device described in Example 1 was implanted episclerally in each eye. Animals were anesthetized with sodium pentobarbital 24 mg/kg body weight administered intravenously. After routine preparation of the rabbit and the eyes, a pocket beneath the conjunctiva and Tenon's capsule was made in the upper temporal quadrant of the eye. The silicone device was inserted into the pocket but the small tube remained accessible to permit injection of test substance. Two 7-0 silk sutures were applied on both shoulders of the silicone device and on the episcleral tissue at the pars plana to hold the device in position. The conjunctiva was closed with two 7-0 silk sutures. […] 5. The injecting tube was fixed on the upper fornix.
Seven animals (Group 1A) received 3.0 mg of BCNU in 0.15 ml of sesame oil in one eye on the third, sixth, and ninth days after tumor implantation (total dose 9.0 mg). Three animals (Group 1B) received 12.0 mg of BCNU in 0.15 ml of sesame oil on the same schedule (total dose 36.0/mg). […] The fellow eyes served as controls and received diluent only.
Ocular examinations were made on alternate days during the 20 days following tumor implantation; at that time all eyes were enucleated. The effectiveness of treatment was measured by (1) comparing the extent of tumor growth in the anterior chamber of treated and control eyes, (2) noting the occurrence of distortion and perforation of the globe due to tumor growth, (3) weighing all eyes following enucleation, and (4) comparing the histopathologic changes in the eyes.
Clinical results, tabulated below, indicate the day on which the tumor occupied the anterior chamber and the weight of the enucleated eyes. The first day was the day on which tumor tissue was implanted.

[3] = Solubility and stability of BCNU in vehicles (statements); type: physicochemical
[4] = cited from earlier work
[5] = Group IA: 3.0 mg BCNU in sesame oil, days 3, 6 and 9
[6] = Group IB: 12.0 mg BCNU in sesame oil, days 3, 6 and 9
[7] = Group II: 13.0 mg BCNU in pure ethanol, days 3 and 6

## O=NN(CCCl)C(=O)NCCCl [BCNU, 1,3-bis-(2-chloroethyl)-1-nitrosourea]
[1]; 1% or 10% ethanol, 37° C.
  rate of BCNU release from silicone balloons into water: rapidly decreasing rate
[1]; 13, 20 and 60 mg/0.15 ml absolute ethanol
  BCNU release rate after alcohol depletion, comparison of the three balloons: about the same for the three balloons
[1]; BCNU in sesame oil
  depletion of BCNU from silicone microballoons: depleted rather rapidly
[1]; BCNU in sesame oil, 37° C.
  rate of BCNU release from silicone microballoons into water: variable rate
[1]; absolute ethanol
  BCNU remaining inside balloons after alcohol depletion: essentially pure BCNU remained inside the balloons
[1]; absolute ethanol, 13, 20 and 60 mg/0.15 ml, 37° C.
  time of sharp drop in the BCNU release rate: 3 to 4 h
[1]; absolute ethanol, after the alcohol has left
  rate of BCNU diffusion from balloon into water after alcohol depletion: relatively constant rate
[1]; balloon containing the largest amount (60 mg/0.15 ml absolute ethanol)
  duration of BCNU release: released it over the longest time
[2]; 3.0 or 12.0 mg BCNU in 0.15 ml sesame oil, days 3, 6 and 9
  reduction of tumor growth: Significant reduction of tumor growth
[2]; BCNU in absolute ethanol, silicone balloons 0.1-0.2 mm wall
  therapeutic results: good therapeutic results
[2]; Group I (IA and IB), sesame oil, 10 treated eyes
  Aver. wt of eyes after enucleation, treated eye: 5.2 g
[2]; Group I, BCNU in sesame oil
  growth of the implanted tumor tissue in the anterior chamber: slowed in all 10 eyes
[2]; Group IA, 3.0 mg in sesame oil
  Aver. wt of eyes after enucleation, treated eye: 5.7 g
[2]; Group IA, three doses of 3.0 mg in sesame oil, 15 days after tumor implantation
  eyes retaining normal shape and size without distortion for 15 days: six eyes of the seven
[2]; [5]
  Day Tumor Occupied Anterior Chamber, Treated Eye: 13 days and 14 days and 12 days and 18 days
  Day Tumor Destroyed Whole Eye, Treated Eye: 18 days and 19 days and 17 days and 16 days and > 18 days and 15 days
[2]; Group IB, 12.0 mg in sesame oil
  Aver. wt of eyes after enucleation, treated eye: 4.1 g
[2]; Group IB, three doses of 12.0 mg in sesame oil, 19 days after tumor implantation
  eyes retaining normal shape and size without distortion for 19 days: Two eyes of the three
[2]; [6]
  Day Tumor Occupied Anterior Chamber, Treated Eye: 20 days and 17 days and 11 days
  Weight of Eyes After Enucleation, Treated Eye: 3.5 g and 5.2 g
  Day Tumor Destroyed Whole Eye, Treated Eye: > 20 days and 20 days and 17 days
[2]; Group II, BCNU in pure ethanol
  average weight of the four treated eyes after enucleation: 3.1 gm
  response of treated eyes: Each of the four eyes treated showed good response
[2]; Group II, BCNU in pure ethanol, day 15
  tumor tissue growth in the anterior chamber on the fifteenth day: almost completely arrested in three of the four treated eyes
[2]; Group II, BCNU in pure ethanol, day 20
  eyes retaining normal shape and size on the twentieth day: all four treated eyes retained their normal shape and size
[2]; Group II, pure ethanol
  Aver. wt of eyes after enucleation, treated eye: 3.1 g
[2]; [7]
  Day Tumor Occupied Anterior Chamber, Treated Eye: 18 days and 15 days and 20 days
  Weight of Eyes After Enucleation, Treated Eye: 2.8 g and 3.2 g and 3.3 g
  Day Tumor Destroyed Whole Eye, Treated Eye: > 20 days and > 29 days
[2]; absolute ethanol (so in the source), days 3 and 6
  reduction in tumor growth: greatest reduction in tumor growth
[2]; all eyes (Groups I and II)
  Aver. wt. of eyes after enucleation, treated eye: 4.6 g
[3]; absolute ethanol as solvent for BCNU
  solubility in absolute ethanol: excellent solvent for BCNU
[3]; sesame oil
  solubility in sesame oil: fairly soluble
  stability in sesame oil: relatively stable
[4]; Montgomery et al., J. Med. Chem. 1967
  reported half-life of BCNU in water: 5.08 h
[4]; Schmidt et al., supra
  reported half-life of BCNU in water: 2.33 h
[4]; in water, of the order of
  Decomposition of BCNU in water: 140 to 305 min
